Like-named read-outs stand apart in the source and are kept apart here.
How the values were obtained:
[1] = target: T1, H3 receptor (Cavia porcellus, UniProt Q9JI35); assay: H3 receptor bioassay (functional assay), guinea pig ileal longitudinal muscle myenteric plexus; format: cell-based; settings: antagonism of R-(α)-methylhistamine E/[A] curve, Schild's methods; electrically stimulated guinea pig ileum; variance ±0.15 log units; read-out: pKB (functional assay) (converted)
T1 construct: the longitudinal muscle layer and adhering myenteric plexus was teased away; from tissue; host or cells: ileal longitudinal muscle with adhering myenteric plexus of male Dunkin-Hartley guinea pigs
T1 sequence (Q9JI35 whole entry): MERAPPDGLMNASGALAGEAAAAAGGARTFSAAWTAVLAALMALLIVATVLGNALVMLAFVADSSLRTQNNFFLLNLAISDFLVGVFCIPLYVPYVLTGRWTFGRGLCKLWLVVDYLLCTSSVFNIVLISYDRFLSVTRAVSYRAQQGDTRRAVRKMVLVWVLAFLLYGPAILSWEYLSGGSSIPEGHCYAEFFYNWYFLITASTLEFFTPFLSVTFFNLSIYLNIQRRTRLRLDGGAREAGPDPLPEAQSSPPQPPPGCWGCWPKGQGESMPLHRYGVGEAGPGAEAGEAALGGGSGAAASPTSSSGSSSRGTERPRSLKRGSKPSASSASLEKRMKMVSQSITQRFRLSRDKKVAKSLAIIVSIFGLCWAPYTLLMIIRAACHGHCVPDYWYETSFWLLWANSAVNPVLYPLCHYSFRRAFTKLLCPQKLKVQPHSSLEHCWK
Description: The biological activity of the compounds of the examples was measured using the ileal longitudinal muscle, myenteric plexus assay described by Paton and Aboo Zar (J. Physiol. 194, 13-33 (1968)). Male Dunkin-Hartley guinea pigs (250-300 g) were employed. Briefly, a 50 cm portion of ileum proximal to the caecum was removed, after discarding the terminal 20 cm. Ileal segments (3 cm) were cleaned by passing Krebs-Henseleit buffer containing 3 μM mepyramine gently through the ileum using a Pasteur pipette (size: 13.8 cm length, 0.65 cm diameter). To avoid unnecessary damage to the tissue, Krebs-Henseleit buffer was passed through the ileal segment, while it was lying horizontally on a petri dish. Therefore, the ileum was not over-distended and the buffer flowed through with ease. Each segment was then passed over a Pasteur pipette and the longitudinal muscle layer and adhering myenteric plexus was teased away using moist cotton wool, by stroking tangentially away from the mesenteric attachment. The tissues were suspended in 20 ml organ baths containing Krebs-Henseleit buffer at 37±1° C. and gassed with […]. The tissues were ligated to two parallel stainless steel wires, situated between two platinum electrodes (0.76 cm length, 0.06 cm diameter). All measurements were recorded isometrically (Grass FTO3 transducer). Following an initial loading tension of 1 g, the tissues were stimulated with electrical pulses at a frequency of 0.1 Hz and a pulse duration of 0.5msec, as described by Kosterlitz & Watt (1968). Initially, the tissues were stimulated at supramaximal (1.3 fold times maximal) voltage for a period of 30 min and then the tissues were washed and re-stimulated. A "sighter dose" of the selective histamine H3 -receptor agonist, R-(α)-methylhistamine(0.3 μM) (Arrang et al., 1987), was administered. Upon generation of response, the "sighter dose" was removed from the tissues by "washout" (6 washes over 60 min) and during this period the electrical stimulation was switched off. The tissues were then re-stimulated and allowed to stabilise prior to the addition of drug treatments, which were allocated on a randomised block basis to the organ baths. Following the incubation period, a single cumulative E/[A] curve was obtained. The experimental E/[A] curve data was expressed as the percentage inhibition of the peak height of electrically-stimulated contraction. Antagonist affinity values were calculated from the degree of rightward shift of the R-(α)-methylhistamine E/[A] curves using Schild's methods (Arunlatcshama & Schild, 1949).
(§1) Typical variance in the functional assay is ±0.15 log units. Typical variance in the binding assay is ±0.12 log units. This means that if the discrepancy between the two assays is greater than about 0.5 log units, then this difference on average is significant.

[2] = target: T2, Histamine H3 (Cavia porcellus, UniProt Q9JI35); assay: Histamine H3 radioligand binding assay, [3H]-R-α-methylhistamine, guinea pig ileum longitudinal muscle myenteric plexus membranes
T2 construct: ileum longitudinal muscle myenteric plexus membranes; from tissue; host or cells: ileum longitudinal muscle myenteric plexus membranes of male Dunkin Hartley guinea pigs
T2 sequence (Q9JI35 whole entry): as above
Description: Histamine H3 Radioligand Binding Assay
Male Dunkin Hartley guinea pigs (200-300 g) were used. The small intestine was rapidly removed (cut ~5 cm from caecum and 5 cm from stomach) and placed in ice-cold 20 mM Hepes-NaOH buffer (pH7.4 at 21±3° C.). The tissue was cut into ~10 cm segments, flushed through with ice-cold 20 mM Hepes-NaOH buffer and placed in a beaker containing fresh buffer at 4° C. 10 cm segments of ileum were threaded onto a glass pipette and the longitudinal muscle myenteric plexus was peeled away from the circular muscle using damp cotton-wool. Longitudinal muscle myenteric plexus was immediately placed in ice-cold Viaspan® solution (~100 ml for tissue from 3 guinea pigs) and placed in the refrigerator for 24 hours.
Pre-soaked tissue was weighed and minced with scissors. The tissue was then homogenised in Viaspan® using a polytron (Kinematica AG; PT-DA 3020/2TS, 3×~1-2 s). 50 ml of 500 mM Tris HCl (pH6.9 at 21±3° C.) was added to the tissue and the mixture centrifuged at 39,800×g for 12 min at 4° C. The supernatant was discarded and rehomogenised in 100 ml ice-cold 20 mM Hepes-NaOH buffer (pH7.4 at 21±3° C.) using a teflon-in-glass homogeniser (setting 10; 3×). The homogenate was recentrifuged at 39,800×g and the pellet resuspended in 20 mM Hepes-NaOH buffer (pH7.4 at 21±3° C.), to a tissue concentration of 50 mg.ml^-1, using a polytron (Brinkman, PT10, 3×~1 s).
Guinea pig ileum longitudinal muscle myenteric plexus membranes (400 μl) were incubated for 165 min at 21±3° C. in a final volume of 500 μl with 20 mM Hepes-NaOH buffer containing [^3 H]-R-α-methylhistamine (50 μl; 3 nM) and competing compound. Total and non-specific binding of [^3 H]-R-α-methylhistamine were defined using 50 μl of buffer and 50 μl of 10 μM thioperamide, respectively. The assay was terminated by rapid filtration through Whatman GF/B filters, presoaked (2 hr) in 0. 1% polyethyleneimine,using a Brandell Cell Harvester. The filters were washed (3×3 ml) with ice-cold 50 mM Tris-HCl (pH6.9 at 21±3° C.), transferred into scintillation vials, 5 ml liquid scintillation cocktail was added and after 4 hours the bound radioactivity was determined by counting (4 min) in a Beckman liquid scintillation counter.
Data are analysed using GraphPad prism and the general equation for a competition curve with variable Hill slope (nH).
Y=Non-specific binding+(Total binding-Non-specific binding)/1+10^((logIC.sbsp.50^-X).n.sbsp.H^)
X is the log concentration of competing compound, Y is the binding obtained at each concentration of X, pIC50 is the concentration of the competitor required to compete for half of the specific binding.
The IC50 is converted to the K1 using the Cheng Prusoff equation, […]
IC50 is the concentration of competitor required to compete for half the specific binding, L is the radioligand concentration used, KD is the equilibrium dissociation constant for the radioligand determined by saturation experiments.
as §1

[3] = 3 nM [3H]-R-α-methylhistamine, 165 min, 21±3° C., Cheng Prusoff, variance ±0.12 log units
[4] = 3 nM [3H]-R-α-methylhistamine, 165 min, 21±3° C., Cheng Prusoff, variance ±0.12 log units, read-out: pK1 (binding assay) (converted)

| Kb [1] [µM] | pK1 (binding assay) [2, 3] | Ki [2, 4] [µM] | SMILES | Ki [2] [µM] |
| --- | --- | --- | --- | --- |
| 0.0437 | 7.44 |  | O=S(=O)(Cc1ccc(Cl)cc1)NCCCCCCCc1c[nH]cn1 [Example 32, N-[7-(4(5)-Imidazoyl)heptyl]-(4-chlorophenyl)methanesulfonamide] |  |
|  |  | 0.145 | C[C@H](NS(=O)(=O)NCCCCc1c[nH]cn1)c1ccccc1 [Example 81, N-[4-(4(5)-Imidazoyl)butyl]-N'-(1S-phenylethyl)-sulfamide] |  |
| 0.00105 |  | 0.00437 | O=S(=O)(NCCCCCCc1c[nH]cn1)NCc1ccc(Br)cc1 [Example 58] |  |
| 0.0158 |  | 0.0112 | CN(Cc1ccc(Cl)cc1)S(=O)(=O)NCCCCc1c[nH]cn1 [Example 70] |  |
|  |  |  | O=S(=O)(Cc1ccc(Br)cc1)NCCCCc1c[nH]cn1 [Example 77, N-[4-(4(5)-Imidazoyl)butyl]-(4-bromophenyl)methanesulfonamide] | 0.00309 |
| 0.0479 |  | 0.0105 | O=S(=O)(NCCCCCc1c[nH]cn1)NCc1ccc(F)cc1 [Example 65, N-[5-(4(5)-Imidazoyl)pentyl]-N'-(4-fluorophenyl)methyl-sulfamide] |  |
| 0.00331 |  | 0.00269 | O=S(=O)(NCCCCc1c[nH]cn1)NCc1ccc(C(F)(F)F)cc1 [Example 47, N-[4-(4(5)-Imidazoyl)butyl]-N'-(4-(trifluoromethyl)phenyl)methyl-sulfamide] |  |
| 0.00427 | 8.15 |  | O=S(=O)(NCCCCCCCc1c[nH]cn1)NCc1ccc(Cl)cc1 [Example 38, N-[7-(4(5)-Imidazoyl)heptyl]-N'-(4-chlorophenyl)methyl-sulfamide] |  |
| 0.0012 |  | 0.00186 | CN(CCCCc1c[nH]cn1)S(=O)(=O)NCc1ccc(Cl)cc1 [Example 69, N'-(4-Chlorophenyl)methyl-N-[4-(4(5)-imidazoyl)butyl]-N-methyl-sulfamide] |  |
| 0.0468 | 7.94 |  | O=S(=O)(Cc1ccc(Cl)cc1)NCCCCCc1c[nH]cn1 [Example 9, N-[5-(4(5)-Imidazoyl)pentyl]-(4-chlorophenyl)methanesulfonamide] |  |
| 0.00631 | 8.23 |  | O=S(=O)(NCCCCCc1c[nH]cn1)NCc1ccc(Cl)cc1 [Example 12, N-[5-(4(5)-Imidazoyl)pentyl]-N'-(4-chlorophenyl)methyl-sulfamide] |  |
| 0.00603 |  | 0.00776 | O=S(=O)(CCc1ccc(Cl)cc1)NCCCCc1c[nH]cn1 [Example 55] |  |
| 0.38 |  | 0.0562 | O=S(=O)(NCCCCc1c[nH]cn1)NCc1ccccc1Cl [Example 43, N-[4-(4(5)-Imidazoyl)butyl]-N'-(2-chlorophenyl)methyl-sulfamide] |  |
| 0.00977 | 7.95 |  | O=S(=O)(Cc1ccc(Cl)cc1)NCCCCCCc1c[nH]cn1 [Example 11, N-[6-(4(5)-Imidazoyl)hexyl]-(4-chlorophenyl)methanesulfonamide] |  |
| 0.00741 |  | 0.00575 | O=S(=O)(NCCCCCCc1c[nH]cn1)NCc1ccc(-c2ccccc2)cc1 [Example 62, N-[6-(4(5)-Imidazoyl)hexyl]-N'-(4biphenyl)methyl-sulfamide] |  |
| 0.0427 |  | 0.0158 | O=S(=O)(NCCCCCCCCc1c[nH]cn1)NCc1ccc(Cl)cc1 [Example 39, N-[8-(4(5)-Imidazoyl)octyl]-N'-(4-chlorophenyl)methyl-sulfamide] |  |
| 0.00123 | 8.71 |  | O=S(=O)(NCCCCc1c[nH]cn1)NCc1ccc(Br)cc1 [Example 45, N-[4-(4(5)-Imidazoyl)butyl]-N'-(4-bromophenyl)methyl-sulfamide] |  |
| 0.24 | 6.97 |  | O=S(=O)(NCCCCCCCCc1c[nH]cn1)c1ccc2ccccc2c1 [Example 30, N-[8-(4(5)-Imidazoyl)octyl]-2-naphthalenesulfonamide] |  |
| 0.0871 | 7.58 |  | COc1ccc(CNS(=O)(=O)NCCCCc2c[nH]cn2)cc1 [Example 48, N-[4-(4(5)-Imidazoyl)butyl]-N'-(4-methoxyphenyl)methyl-sulfamide] |  |
| 0.017 |  | 0.0112 | CN(CCCCc1c[nH]cn1)S(=O)(=O)N(C)Cc1ccc(Cl)cc1 [Example 68, N'-(4-Chlorophenyl)methyl-N,N'-dimethyl-N-[4-(4(5)-imidazoyl)butyl]-sulfamide] |  |
|  |  | 0.2 | O=S(=O)(NCCCCc1c[nH]cn1)NCC12CC3CC(CC(C3)C1)C2 [Example 52, N-[4-(4(5)-Imidazoyl)butyl]-N'-adamant-1-ylmethyl-sulfamide] |  |
|  | 7.23 |  | O=S(=O)(Cc1ccc(Cl)cc1)NCCCCCCCCCCc1c[nH]cn1 [Example 34, N-[10-(4(5)-Imidazoyl)decyl]-(4-chlorophenyl)methanesulfonamide] |  |
|  |  | 0.00355 | O=S(=O)(Cc1ccc(C(F)(F)F)cc1)NCCCCc1c[nH]cn1 [Example 78, N-[4-(4(5)-Imidazoyl)butyl]-(4-trifluoromethylphenyl)methanesulfonamide] |  |
|  | 6.02 |  | O=S(=O)(NCCCCCCCCCCc1c[nH]cn1)NCc1ccc(Cl)cc1 [Example 40, N-[10-(4(5)-Imidazoyl)decyl]-N'-(4-chlorophenyl)methyl-sulfamide] |  |
|  |  | 0.174 | C[C@@H](NS(=O)(=O)NCCCCc1c[nH]cn1)c1ccccc1 [Example 80, N-[4-(4(5)-Imidazoyl)butyl]-N'-(1R-phenylethyl)-sulfamide] |  |
|  |  | 0.0275 | O=S(=O)(NCCCCCc1c[nH]cn1)NCc1ccc(-c2ccccc2)cc1 [Example 82, N-[5-(4(5)-Imidazoyl)pentyl]-N'-(4-biphenyl)methyl-sulfamide] |  |

| SMILES | Kb [1] [µM] | pK1 (binding assay) [2, 3] | Ki [2, 4] [µM] | Ki [2] [µM] |
| --- | --- | --- | --- | --- |
| O=S(=O)(CCc1ccc(Cl)cc1)NCCCc1c[nH]cn1 [Example 53, N-[3-(4(5)-Imidazoyl)propyl]-2-(4-chlorophenyl)ethanesulfonamide] | 0.182 |  |  | 0.0562 |
| O=S(=O)(Cc1ccc(F)cc1)NCCCCc1c[nH]cn1 [Example 79, N-[4-(4(5)-Imidazoyl)butyl]-(4-fluoromethylphenyl)methanesulfonamide] |  | 8.13 |  |  |

Source: US6080871A, “Sulfonamides and sulfamides as H3 receptor antagonists” (James Black Foundation Limited, priority 1996, dated 2000)
